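In this assay, cells in 96-well plates receive the compound at five concentrations for 48 hours. Endpoints are linearly interpolated between the surrounding concentrations. At the GI50, growth is halved. TGI marks complete inhibition of growth.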
Legend:
Assay in all cases: NCI anticancer screen, dose series, 48 h
HCT-15 colon = test system: HCT-15 colon
SK-OV-3 ovarian = test system: SK-OV-3 ovarian
RPMI-8226 leukemia = test system: RPMI-8226 leukemia
HOP-92 NSCLC = test system: HOP-92 NSCLC
PC-3 prostate = test system: PC-3 prostate
SNB-75 CNS = test system: SNB-75 CNS
SK-MEL-5 melanoma = test system: SK-MEL-5 melanoma
SF-539 CNS = test system: SF-539 CNS
UACC-62 melanoma = test system: UACC-62 melanoma
SW-620 colon = test system: SW-620 colon
MALME-3M melanoma = test system: MALME-3M melanoma
ACHN renal = test system: ACHN renal
NCI-H522 lung = test system: NCI-H522 lung
HS 578T breast = test system: HS 578T breast
K-562 leukemia = test system: K-562 leukemia
SF-268 CNS = test system: SF-268 CNS
HCT-116 colon = test system: HCT-116 colon
OVCAR-3 ovarian = test system: OVCAR-3 ovarian
A498 renal = test system: A498 renal
IGROV1 ovarian = test system: IGROV1 ovarian
NCI/ADR-RES ovarian = test system: NCI/ADR-RES ovarian
SK-MEL-2 melanoma = test system: SK-MEL-2 melanoma
COLO 205 colon = test system: COLO 205 colon
786-0 renal = test system: 786-0 renal
TK-10 renal = test system: TK-10 renal
SNB-19 CNS = test system: SNB-19 CNS
MOLT-4 leukemia = test system: MOLT-4 leukemia
NCI-H460 lung = test system: NCI-H460 lung
HOP-62 NSCLC = test system: HOP-62 NSCLC
EKVX NSCLC = test system: EKVX NSCLC
SF-295 CNS = test system: SF-295 CNS
M14 melanoma = test system: M14 melanoma
SN12C renal = test system: SN12C renal
HL-60(TB) leukemia = test system: HL-60(TB) leukemia
CCRF-CEM leukemia = test system: CCRF-CEM leukemia
LOX IMVI melanoma = test system: LOX IMVI melanoma
U251 CNS = test system: U251 CNS
MDA-MB-231 breast = test system: MDA-MB-231 breast
HCC-2998 colon = test system: HCC-2998 colon
MDA-MB-435 = test system: MDA-MB-435
UO-31 renal = test system: UO-31 renal
OVCAR-8 ovarian = test system: OVCAR-8 ovarian
NCI-H23 lung = test system: NCI-H23 lung
OVCAR-4 ovarian = test system: OVCAR-4 ovarian
HT29 colon = test system: HT29 colon
RXF 393 renal = test system: RXF 393 renal
BT-549 breast = test system: BT-549 breast
UACC-257 melanoma = test system: UACC-257 melanoma
DU-145 prostate = test system: DU-145 prostate
MCF7 breast = test system: MCF7 breast
T-47D breast = test system: T-47D breast
KM12 colon = test system: KM12 colon
CAKI-1 renal = test system: CAKI-1 renal
SR leukemia = test system: SR leukemia
NCI-H226 lung = test system: NCI-H226 lung
A549 NSCLC = test system: A549 NSCLC
OVCAR-5 ovarian = test system: OVCAR-5 ovarian

With `CCCCCCCCn1ccc2cc(NC(=O)Cn3cc(CN4CCN(CC)CC4)nn3)ccc21` the GI50 (HCT-15 colon) was 1.78 µM, the TGI (HCT-15 colon) was 3.79 µM and the GI50 (SK-OV-3 ovarian) was 1.78 µM. It also gave a TGI (SK-OV-3 ovarian) of 3.49 µM, a GI50 (RPMI-8226 leukemia) of 2.28 µM and a TGI (RPMI-8226 leukemia) of 5.39 µM. It also gave a GI50 (HOP-92 NSCLC) of 1.36 µM, a TGI (HOP-92 NSCLC) of 2.9 µM and a GI50 (PC-3 prostate) of 2.06 µM. For the same molecule, the TGI (PC-3 prostate) was 5.03 µM, the GI50 (SNB-75 CNS) was 1.52 µM and the TGI (SNB-75 CNS) was 2.98 µM. It also gave a GI50 (SK-MEL-5 melanoma) of 1.75 µM, a TGI (SK-MEL-5 melanoma) of 3.14 µM and a GI50 (SF-539 CNS) of 1.68 µM. The TGI (SF-539 CNS) was 3.17 µM, the GI50 (UACC-62 melanoma) was 1.91 µM and the TGI (UACC-62 melanoma) was 3.5 µM. It also gave a GI50 (SW-620 colon) of 1.9 µM, a TGI (SW-620 colon) of 3.62 µM and a GI50 (MALME-3M melanoma) of 1.68 µM. For the same molecule, the TGI (MALME-3M melanoma) was 3.17 µM, the GI50 (ACHN renal) was 1.82 µM and the TGI (ACHN renal) was 3.47 µM. It also gave a GI50 (NCI-H522 lung) of 1.89 µM, a TGI (NCI-H522 lung) of 3.84 µM and a GI50 (HS 578T breast) of 2.14 µM. For the same molecule, the TGI (HS 578T breast) was 5.54 µM, the GI50 (K-562 leukemia) was 2.05 µM and the TGI (K-562 leukemia) was 4.34 µM. The GI50 (SF-268 CNS) was 1.9 µM, the TGI (SF-268 CNS) was 4.01 µM and the GI50 (HCT-116 colon) was 1.7 µM. The TGI (HCT-116 colon) was 3.51 µM, the GI50 (OVCAR-3 ovarian) was 2.7 µM and the TGI (OVCAR-3 ovarian) was 8.25 µM. The GI50 (A498 renal) was 2.07 µM, the TGI (A498 renal) was 4.97 µM and the GI50 (IGROV1 ovarian) was 2.17 µM. The TGI (IGROV1 ovarian) was 5.98 µM, the GI50 (NCI/ADR-RES ovarian) was 12.2 µM and the TGI (NCI/ADR-RES ovarian) was 27.7 µM. For the same molecule, the GI50 (SK-MEL-2 melanoma) was 2.01 µM, the TGI (SK-MEL-2 melanoma) was 3.89 µM and the GI50 (COLO 205 colon) was 1.8 µM. It also gave a TGI (COLO 205 colon) of 3.47 µM, a GI50 (786-0 renal) of 1.61 µM and a TGI (786-0 renal) of 3.11 µM. The GI50 (TK-10 renal) was 1.77 µM, the TGI (TK-10 renal) was 3.36 µM and the GI50 (SNB-19 CNS) was 1.9 µM. It also gave a TGI (SNB-19 CNS) of 3.77 µM, a GI50 (MOLT-4 leukemia) of 2.58 µM and a TGI (MOLT-4 leukemia) of 6.68 µM. It also gave a GI50 (NCI-H460 lung) of 1.94 µM, a TGI (NCI-H460 lung) of 3.68 µM and a GI50 (HOP-62 NSCLC) of 1.7 µM. For the same molecule, the TGI (HOP-62 NSCLC) was 3.33 µM, the GI50 (EKVX NSCLC) was 1.81 µM and the TGI (EKVX NSCLC) was 4.65 µM. For the same molecule, the GI50 (SF-295 CNS) was 1.87 µM, the TGI (SF-295 CNS) was 3.7 µM and the GI50 (M14 melanoma) was 1.9 µM. It also gave a TGI (M14 melanoma) of 3.67 µM, a GI50 (SN12C renal) of 1.82 µM and a TGI (SN12C renal) of 3.76 µM. It also gave a GI50 (HL-60(TB) leukemia) of 1.97 µM, a TGI (HL-60(TB) leukemia) of 4.14 µM and a GI50 (CCRF-CEM leukemia) of 3.06 µM. For the same molecule, the TGI (CCRF-CEM leukemia) was 10.3 µM, the GI50 (LOX IMVI melanoma) was 1.72 µM and the TGI (LOX IMVI melanoma) was 3.2 µM. The GI50 (U251 CNS) was 1.77 µM, the TGI (U251 CNS) was 3.26 µM and the GI50 (MDA-MB-231 breast) was 1.75 µM. It also gave a TGI (MDA-MB-231 breast) of 3.38 µM, a GI50 (HCC-2998 colon) of 1.84 µM and a TGI (HCC-2998 colon) of 3.43 µM. It also gave a GI50 (MDA-MB-435) of 1.78 µM, a TGI (MDA-MB-435) of 3.32 µM and a GI50 (UO-31 renal) of 1.46 µM. For the same molecule, the TGI (UO-31 renal) was 2.79 µM, the GI50 (OVCAR-8 ovarian) was 2.33 µM and the TGI (OVCAR-8 ovarian) was 5.83 µM. It also gave a GI50 (NCI-H23 lung) of 1.96 µM, a TGI (NCI-H23 lung) of 4.14 µM and a GI50 (OVCAR-4 ovarian) of 6.46 µM. The TGI (OVCAR-4 ovarian) was 19.2 µM, the GI50 (HT29 colon) was 2 µM and the TGI (HT29 colon) was 4.39 µM. The GI50 (RXF 393 renal) was 1.48 µM, the TGI (RXF 393 renal) was 3.04 µM and the GI50 (BT-549 breast) was 1.76 µM. It also gave a TGI (BT-549 breast) of 4.19 µM, a GI50 (UACC-257 melanoma) of 1.83 µM and a TGI (UACC-257 melanoma) of 3.65 µM. It also gave a GI50 (DU-145 prostate) of 3.4 µM, a TGI (DU-145 prostate) of 11.4 µM and a GI50 (MCF7 breast) of 1.82 µM. The TGI (MCF7 breast) was 3.73 µM, the GI50 (T-47D breast) was 1.81 µM and the TGI (T-47D breast) was 3.56 µM. The GI50 (KM12 colon) was 2.08 µM, the TGI (KM12 colon) was 4.74 µM and the GI50 (CAKI-1 renal) was 1.8 µM. For the same molecule, the TGI (CAKI-1 renal) was 3.43 µM, the GI50 (SR leukemia) was 3.35 µM and the TGI (SR leukemia) was 11.8 µM. For the same molecule, the GI50 (NCI-H226 lung) was 1.59 µM, the TGI (NCI-H226 lung) was 3.1 µM and the GI50 (A549 NSCLC) was 1.99 µM. For the same molecule, the TGI (A549 NSCLC) was 4.1 µM, the GI50 (OVCAR-5 ovarian) was 2.36 µM and the TGI (OVCAR-5 ovarian) was 6.39 µM.
